Assay results reported in publication PMC8596301 (Frontiers in Pharmacology, 2021).
Where two headings read alike, the source gives them in different places.

Columns and labels:
FLAG-mouse δOR [1] = target: T1, FLAG-mouse δOR (Mus musculus, UniProt P32300); design: method as in Gutridge et al., 2020; conditions: cited from earlier work
T1 construct: expressed in transfected cells; host or cells: HEK cells (HEK-293), transient, co-transfected with pGloSensor22F

HA-mouse µOR [2] = target: T2, HA-mouse µOR (Mus musculus, UniProt P42866); conditions: cited from earlier work
T2 construct: expressed in transfected cells; host or cells: HEK cells (HEK-293), transient, co-transfected with pGloSensor22F

κOR = κOR (Homo sapiens, UniProt P41145); assay: biochemical; assay type: binding
wild-type C57Bl/6 mice [3] = conditions: 10 and 30 mg∙kg^−1; male mice; ref Gutridge et al., 2020; cited from earlier work
[4] = design: method as in Kamble et al., 2021; conditions: rats; oral; 1.1 mg∙kg^−1; ref Kamble et al., 2021; cited from earlier work
C57Bl/6 male mice [5] = assay: Tail flick thermal nociception assay; assay type: in vivo, mouse
WT and δOR KO mice = assay: Seizure assay (modified Racine scale); assay type: in vivo, mouse
Method: To assess drug-induced seizurogenic activity, mice were placed in a clear plastic cylinder (25 cm diameter, 35 cm height) immediately following drug injection and their activity was recorded in a well-lit, quiet room using iSpy camera software (iSpyConnect.com). A recording time of 90 min was chosen for the tested compounds based on previous observations of seizures time lengths in experiments with 30 mg∙kg^−1 paynantheine. If animals were not presenting with seizure activity after 30 min, the recording time was shortened accordingly. Seizure severity was scored based on the modified Racine scale (half-scores allowed) in bins of 3–5 min. Onset to first seizure symptom, onset to highest Racine score, and highest Racine score were also assessed. A summary of all statistical analyses for the seizure data can be found in Supplemental Table S3. In brief, seizure-like behavior between wild type and δOR KO mice was compared with a two-tailed, unpaired t test with Welch’s correction on area under the curve data generated from graphing the highest Racine score per time bin over 90 min for each mouse.

C57Bl/6 male mice [6] = assay: Locomotor evaluation (ambulation)
FLAG-mouse κOR [7] = target: T3, FLAG-mouse κOR (Mus musculus, UniProt P33534); design: method as in Gutridge et al., 2020; conditions: cited from earlier work
T3 construct: expressed in transfected cells; host or cells: HEK cells (HEK-293), transient, co-transfected with pGloSensor22F

μOR = μOR (Homo sapiens, UniProt P35372); assay: biochemical; assay type: binding
C57Bl/6 male mice [8] = assay: Brief and extended conditioned place preference paradigms; assay type: in vivo, mouse
Description: Mice were conditioned to drugs and vehicle as described previously in two-chamber conditioned place preference (CPP) boxes in a counterbalanced, unbiased approach for either two drug conditioning sessions over 2 days (brief) or four drug conditioning sessions over 8 days (extended) ([Váradi et al., 2015]; [Gutridge et al., 2020]). For brief and extended conditioned place preference experiments, separate groups of mice were used for each drug dose. A summary of all statistical analyses for the CPP data can be found in Supplemental Table S4. In brief, all CPP data were analyzed with two-tailed, paired t tests comparing time spent on the drug-paired side pre- and post-conditioning.

δOR KO mice = assay: Two-bottle choice alcohol paradigm (drinking in the dark, 10% ethanol vs. water); assay type: in vivo, mouse; conditions: for Ethanol consumption: δOR KO male mice
Method: (§1) Mice were subject to drinking in the dark (DID), limited access (4 h per day), two-bottle choice (10% ethanol vs. water) paradigm in which they were trained to consume alcohol voluntarily as previously described ([Rhodes et al., 2005]; [van Rijn and Whistler, 2009]). Mice reached stable alcohol consumption within 3 weeks of training, and after the third week, drug injections were administered prior to the daily drinking session on Friday. Drug’s effect on alcohol consumption was measured as the change in Friday’s alcohol intake minus the average alcohol intake from the preceding Tuesday–Thursday of that week (g∙kg^−1). A summary of all statistical analyses for the drinking data can be found in Supplemental Tables S6–S9. In brief, results from two-bottle choice alcohol consumption paradigms were assessed for statistical significance using RM two-way ANOVA for main effects of drug dose, treatment day, and drug dose × treatment day; Sidak’s multiple comparisons (MC) between alcohol consumption baseline (Tuesday–Thursday average) vs. treatment day consumption (Friday) were then used as the post hoc test for each drug dose tested. The same RM two-way ANOVA and Sidak’s MC post hoc analyses were used for water consumption and ethanol preference data. […] Sex differences between baseline data were evaluated using RM two-way ANOVA for main effects of sex, treatment baseline, and sex × treatment baseline; Sidak’s multiple comparisons (MC) between male and female mice were then used as the post hoc test for each treatment week tested.

C57Bl/6 male mice [9] = conditions: ref Gutridge et al., 2020; cited from earlier work
human ORs = tested on: human ORs; design: method as in Kruegel et al., 2016; conditions: ref Kruegel et al., 2016; cited from earlier work
FLAG-mouse δOR [10] = target: T1, FLAG-mouse δOR; assay: cell-based
δOR = δOR (Homo sapiens, UniProt P41143); assay: biochemical; assay type: binding
HA-mouse µOR [11] = target: T2, HA-mouse µOR; assay: cell-based
[12] = Maximum tolerated dose (side effect profile); conditions: C57Bl/6, mouse, in vivo, sc, 10 mg∙kg^−1
FLAG-mouse κOR [13] = target: T3, FLAG-mouse κOR; assay: cell-based
wild-type C57Bl/6 mice [14] = assay: Two-bottle choice alcohol paradigm (drinking in the dark, 10% ethanol vs. water); assay type: in vivo, mouse
Method: as §1

[15] = ref Gutridge et al., 2020, read-out: cAMP IC50
[16] = HEK293, read-out: cAMP α (% inhibition at maximal efficacy)
[17] = 10 mg∙kg^−1 s.c., WT male and female mice
[18] = 7-hydroxyspeciogynine 10 mg∙kg^−1 s.c., WT male mice

T1 sequence (P32300 whole entry): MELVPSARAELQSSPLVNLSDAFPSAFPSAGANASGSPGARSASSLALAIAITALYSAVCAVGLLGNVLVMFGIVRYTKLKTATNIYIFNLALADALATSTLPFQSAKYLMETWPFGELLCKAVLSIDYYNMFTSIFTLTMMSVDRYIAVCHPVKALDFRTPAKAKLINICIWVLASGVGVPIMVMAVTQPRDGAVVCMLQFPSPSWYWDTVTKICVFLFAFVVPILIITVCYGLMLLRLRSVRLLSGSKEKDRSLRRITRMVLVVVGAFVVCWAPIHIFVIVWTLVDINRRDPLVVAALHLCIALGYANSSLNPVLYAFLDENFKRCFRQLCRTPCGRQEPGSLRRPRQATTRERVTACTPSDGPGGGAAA
T2 sequence (P42866 whole entry): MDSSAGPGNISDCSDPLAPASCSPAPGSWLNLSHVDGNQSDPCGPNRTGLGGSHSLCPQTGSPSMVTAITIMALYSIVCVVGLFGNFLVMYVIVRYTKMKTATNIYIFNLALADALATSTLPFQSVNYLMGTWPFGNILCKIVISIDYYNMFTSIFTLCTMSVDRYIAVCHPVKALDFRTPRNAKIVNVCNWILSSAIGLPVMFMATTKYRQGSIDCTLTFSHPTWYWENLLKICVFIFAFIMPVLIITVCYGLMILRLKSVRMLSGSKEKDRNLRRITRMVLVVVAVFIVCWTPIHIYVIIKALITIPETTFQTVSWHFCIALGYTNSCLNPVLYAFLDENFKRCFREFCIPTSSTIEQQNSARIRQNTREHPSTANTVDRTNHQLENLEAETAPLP
T3 sequence (P33534 whole entry): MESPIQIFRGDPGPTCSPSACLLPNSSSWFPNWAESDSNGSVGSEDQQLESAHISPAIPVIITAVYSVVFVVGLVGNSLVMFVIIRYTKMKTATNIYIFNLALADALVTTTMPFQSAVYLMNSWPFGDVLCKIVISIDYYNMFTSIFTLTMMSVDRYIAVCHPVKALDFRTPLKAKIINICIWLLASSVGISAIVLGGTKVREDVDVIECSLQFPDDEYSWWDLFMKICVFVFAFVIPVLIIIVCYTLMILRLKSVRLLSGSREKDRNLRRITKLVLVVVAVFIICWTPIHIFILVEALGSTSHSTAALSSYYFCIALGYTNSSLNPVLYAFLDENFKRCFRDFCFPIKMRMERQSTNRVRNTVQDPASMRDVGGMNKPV
Sequence of κOR (P41145 whole entry): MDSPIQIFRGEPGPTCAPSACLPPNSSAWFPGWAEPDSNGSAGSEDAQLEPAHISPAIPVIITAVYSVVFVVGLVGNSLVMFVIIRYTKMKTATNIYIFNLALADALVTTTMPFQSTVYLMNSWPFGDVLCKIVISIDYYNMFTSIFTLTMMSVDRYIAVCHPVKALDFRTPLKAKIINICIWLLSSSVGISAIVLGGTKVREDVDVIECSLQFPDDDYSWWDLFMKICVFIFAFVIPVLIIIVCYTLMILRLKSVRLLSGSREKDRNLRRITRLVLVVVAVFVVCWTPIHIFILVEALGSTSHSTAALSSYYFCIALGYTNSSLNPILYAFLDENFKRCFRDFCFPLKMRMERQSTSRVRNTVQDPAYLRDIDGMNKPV
Sequence of μOR (P35372 whole entry): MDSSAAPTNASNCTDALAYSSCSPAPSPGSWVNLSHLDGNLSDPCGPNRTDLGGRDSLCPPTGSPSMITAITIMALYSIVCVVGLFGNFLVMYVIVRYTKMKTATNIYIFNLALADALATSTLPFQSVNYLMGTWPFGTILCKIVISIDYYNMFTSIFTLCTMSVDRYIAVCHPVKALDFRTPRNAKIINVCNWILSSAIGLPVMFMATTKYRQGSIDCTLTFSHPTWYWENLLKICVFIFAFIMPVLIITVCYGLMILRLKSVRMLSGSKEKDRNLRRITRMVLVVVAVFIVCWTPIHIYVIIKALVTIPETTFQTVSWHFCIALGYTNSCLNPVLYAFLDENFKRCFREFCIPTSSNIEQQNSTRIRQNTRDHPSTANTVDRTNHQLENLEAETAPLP
Sequence of δOR (P41143 whole entry): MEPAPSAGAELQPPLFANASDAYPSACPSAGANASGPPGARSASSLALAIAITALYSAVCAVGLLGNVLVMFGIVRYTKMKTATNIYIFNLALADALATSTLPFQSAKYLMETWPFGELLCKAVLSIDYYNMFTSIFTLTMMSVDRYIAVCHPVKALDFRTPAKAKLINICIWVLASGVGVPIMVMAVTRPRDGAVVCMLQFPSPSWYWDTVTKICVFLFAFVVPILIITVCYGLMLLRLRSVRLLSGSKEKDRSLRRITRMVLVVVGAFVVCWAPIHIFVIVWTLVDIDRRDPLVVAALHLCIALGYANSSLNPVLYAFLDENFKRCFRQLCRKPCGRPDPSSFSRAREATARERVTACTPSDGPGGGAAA

C=C[C@H]1CN2CCc3c([nH]c4cccc(OC)c34)[C@@H]2C[C@@H]1/C(=C\OC)C(=O)OC [PAYN, paynantheine]
cAMP α (FLAG-mouse δOR [1]; normalized to Leu-enkephalin, ref Gutridge et al., 2020): 64 ± 13 | IC50 (FLAG-mouse δOR [1]; [15]): 3.55 µM | cAMP pIC50 (FLAG-mouse δOR [1]; ref Gutridge et al., 2020): 5.6 ± 0.2 | cAMP pIC50 (HA-mouse µOR [2]): 5.4 ± 0.1 | cAMP α (HA-mouse µOR [2]): 100 ± 0 | IC50 (HA-mouse µOR [2]; read-out: cAMP IC50): 4.08 µM | Ki (κOR; Binding Ki (µM)): 4 µM | Ki (κOR; Binding pKi): 3.16 µM | Alcohol intake (wild-type C57Bl/6 mice [3]): dose-dependently decreases alcohol intake | Detectability in plasma over time [4]: undetectable after an hour | Tmax in plasma [4]: 10 min | Block of morphine analgesia (C57Bl/6 male mice [5]; 10 mg∙kg^−1 i.p., morphine 6 mg∙kg^−1 s.c.): does not block morphine analgesia | Block of morphine analgesia (C57Bl/6 male mice [5]; 30 mg∙kg^−1 i.p., morphine 6 mg∙kg^−1 s.c.): blocks morphine analgesia | Block of antinociception produced by 6 mg∙kg^−1 morphine (C57Bl/6 male mice [5]; 10 and 30 mg∙kg^−1 i.p., 10 min before morphine s.c.): dose-dependently blocked antinociception | Antinociceptive effect (agonist mode, %MPE) (C57Bl/6 male mice [5]; 10 and 30 mg∙kg^−1 i.p., 30 min): neither the 10 nor 30 mg∙kg^−1 dose displayed meaningful antinociceptive effects | Convulsive behaviors, Racine level (WT and δOR KO mice; 30 mg∙kg^−1 i.p., wild type and δOR KO mice): 1–2 | Effect on hyperlocomotion induced by 6 mg∙kg^−1 morphine (C57Bl/6 male mice [6]; 10 and 30 mg∙kg^−1 i.p., data from CPP conditioning sessions): dose-dependently attenuated hyperlocomotion | cAMP α (FLAG-mouse κOR [7]; normalized to U50,488, ref Gutridge et al., 2020): 95 ± 5 | IC50 (FLAG-mouse κOR [7]; [15]): 7.43 µM | Ki (μOR): 0.52 µM | Conditioned place preference, extended CPP paradigm (C57Bl/6 male mice [8]; 10 mg∙kg^−1 i.p., four drug conditioning sessions, male mice): did not produce CPP nor CPA | Conditioned place preference, brief CPP paradigm (C57Bl/6 male mice [8]; 10 mg∙kg^−1 i.p., two drug conditioning sessions, male mice): modest conditioned place aversion | Block of morphine CPP (C57Bl/6 male mice [8]; 10 and 30 mg∙kg^−1 i.p. pretreatment, morphine 6 mg∙kg^−1, brief CPP): neither dose blocks morphine CPP | Alcohol consumption (δOR KO mice; paynantheine 10 mg∙kg^−1, male δOR KO mice): decreases alcohol consumption in δOR KO mice | Hyperlocomotion at effective dose (C57Bl/6 male mice [9]): does not produce hyperlocomotion | Functional activity at human ORs (human ORs): weak antagonist

CC[C@H]1CN2CC[C@@]3(O)C(=Nc4cccc(OC)c43)[C@@H]2C[C@@H]1/C(=C\OC)C(=O)OC [7OH SPG, 7-Hydroxyspeciogynine]
IC50 (FLAG-mouse δOR [10]): 2.27 µM | Emax (FLAG-mouse δOR [10]; [16]): 76 ± 6% | Ki (κOR; Binding Ki (µM)): 1.63 µM | Block of morphine analgesia (C57Bl/6 male mice [5]; 10 mg∙kg^−1 s.c., then morphine 6 mg∙kg^−1 s.c. 10 min later): did not produce antinociception (paired, two-tailed t test, t = 0.6193, df = 9, p = 0.5511) or block morphine analgesia | Antinociception (agonist mode) (C57Bl/6 male mice [5]; 10 mg∙kg^−1 s.c., male mice): did not produce antinociception | Ki (δOR): 0.46 µM | Seizures (WT and δOR KO mice; 10 mg∙kg^−1 s.c., 30 min): nor induce noticeable seizures | IC50 (HA-mouse µOR [11]): 0.61 µM | Emax (HA-mouse µOR [11]; [16]): 66 ± 6% | MTD at 10 days [12]: ≥ 10 mg/kg | Ambulation (C57Bl/6 male mice [6]; 10 mg∙kg^−1 s.c., data from CPP experiment): did not significantly alter ambulation | Conditioned place preference, extended protocol (C57Bl/6 male mice [8]; 10 mg∙kg^−1 s.c., four conditioning sessions, male WT mice): did not develop conditioned place preference | IC50 (FLAG-mouse κOR [13]): 7.71 µM | Emax (FLAG-mouse κOR [13]; [16]): 80 ± 20% | Ethanol consumption, water consumption, ethanol preference (wild-type C57Bl/6 mice [14]; 3 mg∙kg^−1 s.c., WT female mice): did not significantly modulate ethanol consumption, water consumption, or ethanol preference | Δ ethanol intake, males and females pooled (wild-type C57Bl/6 mice [14]; 3 mg∙kg^−1 s.c., WT male and female mice): significant ethanol modulation effect | Δ ethanol preference, males and females pooled (wild-type C57Bl/6 mice [14]; [17]): significant decrease in ethanol preference | Δ water consumption, males and females pooled (wild-type C57Bl/6 mice [14]; [17]): concomitant increase in water consumption was evident | Decrease in ethanol consumption (wild-type C57Bl/6 mice [14]; 10 mg∙kg^−1 s.c., WT mice): 1.2 ± 0.2 g/kg | Reduction in ethanol consumption (wild-type C57Bl/6 mice [14]; 10 mg∙kg^−1 s.c., WT mice): 40 ± 7% | Ethanol preference (wild-type C57Bl/6 mice [14]; [18]): corresponding decrease in ethanol preference | Water consumption (wild-type C57Bl/6 mice [14]; [18]): concomitant increase in water consumption | Alcohol intake (wild-type C57Bl/6 mice [14]; 7-hydroxyspeciogynine 3 and 10 mg∙kg^−1 s.c., wild-type male mice): reduced alcohol intake in a dose-dependent manner | Ethanol consumption (δOR KO mice; 7-hydroxyspeciogynine 3 mg∙kg^−1 s.c.): lack of effect | Ethanol consumption (δOR KO mice; 7-hydroxyspeciogynine 10 mg∙kg^−1 s.c.): significantly decreased ethanol consumption
